# Results as given in ChEMBL document CHEMBL1138382, “Tetrahydroquinoline sulfonamides as gamma-secretase inhibitors” (Bioorg Med Chem Lett, 2007).
# pIC50: −log10 of the molar value.
# Target: Gamma-secretase
# Test: Inhibition of Gamma-secretase
# Format: protein-complex assay, Homo sapiens
row,pIC50,Structure (SMILES)
1,6.17,NC1CCN(C(=O)OCC2CCc3ccccc3N2S(=O)(=O)c2ccc(Cl)cc2)CC1 (centres undefined)
2,< 6.00,O=C(OCC1CCc2cc(F)ccc2N1S(=O)(=O)c1ccc(Cl)cc1)N1CCC(N2CCCCC2)CC1 (centres undefined)
3,7.14,O=C(OCC1CCc2ccccc2N1S(=O)(=O)c1ccc(Cl)cc1)N1CCC(N2CCCCC2)CC1 (stereo in doubt; 26)
4,< 6.00,"O=C(OCC1CCc2ccccc2N1S(=O)(=O)c1ccc(Cl)cc1)N1CCC(N2CCCCC2)CC1 (single isomer, unassigned; enantiomer b)"
5,6.40,O=C(NCCCN1CCCC1)OCC1CCc2ccccc2N1S(=O)(=O)c1ccc(Cl)cc1 (centres undefined)
6,6.27,O=C(OCC1CCc2ccccc2N1S(=O)(=O)c1ccc(Cl)cc1)N1CCN(C2CCCCC2)CC1 (centres undefined)
7,5.35,O=C(NCCO)OCC1CCc2ccccc2N1S(=O)(=O)c1ccc(Cl)cc1 (centres undefined)
8,5.53,O=C(NCc1ccc([N+](=O)[O-])cc1)OCC1CCc2ccccc2N1S(=O)(=O)c1ccc(Cl)cc1 (centres undefined)
9,6.66,O=C(OCC1CCc2c(F)ccc(F)c2N1S(=O)(=O)c1ccc(Cl)cc1)N1CCC(N2CCCCC2)CC1 (centres undefined)
10,7.06,CCN(Cc1ccncc1)C(=O)OCC1CCc2ccccc2N1S(=O)(=O)c1ccc(Cl)cc1 (centres undefined)
11,6.66,O=C(OCC1CCc2c(F)cc(F)cc2N1S(=O)(=O)c1ccc(Cl)cc1)N1CCC(N2CCCCC2)CC1 (centres undefined)
12,6.36,CCCN1CCN(C(=O)OCC2CCc3ccccc3N2S(=O)(=O)c2ccc(Cl)cc2)CC1 (centres undefined)
13,6.76,CCN(CCCN1CCCC1)C(=O)OCC1CCc2ccccc2N1S(=O)(=O)c1ccc(Cl)cc1 (centres undefined)
14,6.24,CCN(Cc1ccnc(N)c1)C(=O)OCC1CCc2ccccc2N1S(=O)(=O)c1ccc(Cl)cc1 (centres undefined)
15,5.96,O=C(NCCc1ccccc1)OCC1CCc2ccccc2N1S(=O)(=O)c1ccc(Cl)cc1 (centres undefined)
16,7.25,O=C(OCC1CCc2ccc(F)cc2N1S(=O)(=O)c1ccc(Cl)cc1)N1CCC(N2CCCCC2)CC1 (centres undefined)
17,6.54,O=C(OCC1CCc2ccccc2N1S(=O)(=O)c1ccc(Cl)cc1)N1CCC(N2CCCC2)CC1 (centres undefined)
18,6.20,CN(C)C1CCN(C(=O)OCC2CCc3ccccc3N2S(=O)(=O)c2ccc(Cl)cc2)CC1 (centres undefined)
19,5.78,O=C(NCc1ccncc1)OCC1CCc2ccccc2N1S(=O)(=O)c1ccc(Cl)cc1 (centres undefined)
20,6.52,O=C(OCC1CCc2ccccc2N1S(=O)(=O)c1ccc(Cl)cc1)N1CCN(CCO)CC1 (centres undefined)
21,7.41,"O=C(OCC1CCc2ccccc2N1S(=O)(=O)c1ccc(Cl)cc1)N1CCC(N2CCCCC2)CC1 (single isomer, unassigned; enantiomer a)"
22,6.59,O=C(OCC1CCc2ccccc2N1S(=O)(=O)c1ccc(Cl)cc1)N1CCC(N2CCCCCC2)CC1 (centres undefined)
23,6.30,CN1CCCC1CCNC(=O)OCC1CCc2ccccc2N1S(=O)(=O)c1ccc(Cl)cc1 (centres undefined)
24,6.60,CCN(CCC1CCCN1C)C(=O)OCC1CCc2ccccc2N1S(=O)(=O)c1ccc(Cl)cc1 (centres undefined)
